For test [1], the target named is CDK2/cyclin A (Homo sapiens, UniProt P24941). The test is described as follows: CDK2/cyclinA In Vitro Kinase Assay. Type of test: biochemical. The settings on record: 10 μM of each compound; Histone H1 substrate; 0.02 mM ATP; activity as percentage of controls with DMSO alone, mean of duplicates. How it is done:
The inhibitory properties of the compounds of Examples 19, 24, and 31 were assayed in an in vitro CDK2/cyclinA assay at 10 μM of each compound in DMSO. CDK2/cyclin A (5-20 mU diluted in 50 mM Hepes pH 7.5, 1 mM DTT, 0.02% Brij35, 100 mM NaCl) was assayed against Histone H1 in a final volume of 25.5 μl containing 50 mM Hepes pH7.5, 1 mM DTT, 0.02% Brij35, 100 mM NaCl, Histone H1 (1 mg/ml), 10 mM magnesium acetate and 0.02 mM [^33P-γ-ATP](500-1000 cpm/pmole) and incubated for 30 min at room temperature. Assays were stopped by addition of 5 μl of 0.5 M (3%) orthophosphoric acid and then harvested onto P81 Unifilter plates and washed with 50 mM orthophosphoric acid. The filter plates were then counted in a scintillation counter.
The results in Table 3 are expressed as percentage of controls with DMSO alone (mean of duplicates ±the standard deviation from the mean).

For test [2], the target named is T1, PI3Kγ (purified recombinant p101/p110γ protein) (Homo sapiens, UniProt P48736).
T1 construct: HA; made in house; host or cells: Spodoptera frugiperda Sf9 cells (baculovirus co-infection)
The test is described as follows: PI3Kγ In Vitro Kinase Assay. Type of test: biochemical. The settings on record: final ATP 20 μM, 25 μM PIP2, G protein β1/γ2 subunits, 20 minutes at room temperature. As to the method:
Spodtera frugiperda cells, grown in ESF921 media, were co-infected with baculovirus expressing a glu-tagged p101 and baculovirus expressing an HA-tagged p110γ, at a 3:1 ratio of p101 baculovirus to p110γ baculovirus. Sf9 cells were grown to 1×10^7 total cells/mL in 10 L bioreactors and harvested 48-72 hours post infection. Samples of infected cells were then tested for expression of p101/p110γ PI3 kinase by immunoprecipitation and Western Blot analysis methods (see below).
To purify PI3Kγ, 4 volumes of room temperature hypotonic lysis buffer (1 mM MgCl2, 1 mM DTT, 5 mM EGTA, 1 mM Pefabloc, 0.5 μM aprotinin, 5 μM leupeptin, 2 μM pepstatin, 5 μM E64, pH 8) per gram of cell paste, was poured onto frozen cell pellets with stirring, then lysed in a nitrogen “bomb” at 400 psi (599HC T316, Parr Instrument Co, Moline, Ill.). NaCl was added to 150 mM, and sodium cholate was added to 1% and mixed for another 45 minutes. The lysates were clarified by centrifugation for 25 minutes at 14,000 rpm. The lysates were then loaded over anti-glu-linked Protein-G Sepaharose beads (Covance Research Products, Richmond, Calif.) using 20 mL resin/50 g cell paste. The column was washed with 15 volumes of wash buffer (1 mM DTT, 0.2 mM EGTA, 1 mM Pefabloc, 0.5 μM aprotinin, 5 μM leupeptin, 2 μM pepstatin, 5 μM E64, 150 mM NaCl, 1% sodium cholate, pH 8). PI3Kγ was eluted with 6 column volumes of wash buffer that contain 100 μg/mL of a peptide that competes for binding of the glu tag. The column fractions with the eluted protein (determined by taking OD280 readings) were collected and dialyzed in 0.2 mM EGTA, 1 mM DTT, 1 mM Pefabloc, 5 μM leupeptin, 0.5% sodium cholate, 150 mM NaCl, and 50% glycerol, pH 8. The fractions were stored at −80° C. until further use.
Spodtera frugiperda cells were coinfected with baculovirus expressing a glu-tagged G protein β1 and baculovirus expressing a G protein β2, at a 1:1 ratio of glu-tagged G protein β1 baculovirus to G protein β2 baculovirus. Sf9 cells are grown in 10 L bioreactors and harvested 48-72 hours post infection. Samples of infected cells were tested for G protein β1/β2 expression by Western Blot analysis, as described below. Cell lysates were homogenized and loaded onto a column of glu-tagged beads as in Biological Example 1 and competed off the column with a glu peptide and processed as described in Biological Example 1.
The inhibitory properties of the compounds in Table 1 were assayed in an in vitro PI3K assay. In a 96-well polypropylene plate, each well was spotted with 2 μL of 50 times the desired final concentration of compound in DMSO. Purified recombinant p101/p110γ protein (0.03 μg; ˜2.7 nM) and G protein β1/γ2 subunits (0.09 μg; ˜57.7 nM) for each reaction was combined in the assay buffer (30 mM HEPES, 100 mM NaCl, 1 mM EGTA, and 1 mM DTT). ATP and [γ-^32P-ATP] (0.09 μCi) were added to this mixture so that the final ATP concentration in the reaction was 20 μM. Lipid micelles were formed by sonicating phosphatidylinositol-4,5-diphosphate (PIP2), phosphatidylethanolamine (PE), and Na-cholate in the assay buffer for 10 minutes, adding MgCl2 and incubating on ice for 20 minutes, for final concentrations of 25 μM PIP2, 300 μM PE, 0.02% Na-cholate, and 10 mM MgCl2 in the reaction. The reactions were started by adding equal volumes lipid and enzyme mixture in a total volume of 50 μL, allowed to run for 20 minutes at room temperature, and stopped with 100 μL 75 mM H3PO4. The lipid product was transferred to a glass fiber filter plate and washed with 75 mM H3PO4 several times. The presence of radioactive lipid product (PIP3) was measured by adding Wallac Optiphase mix to each well and counting in a Wallac 1450 Trilux plate reader (PerkinElmer Life Sciences Inc., Boston, Mass. 02118). The IC50 for each compound tested is reported in μM in the Table 2: […]

The IC50 is the concentration that gives 50% inhibition.

Each structure is given as a SMILES string.

T1 sequence (P48736 whole entry, species assumed): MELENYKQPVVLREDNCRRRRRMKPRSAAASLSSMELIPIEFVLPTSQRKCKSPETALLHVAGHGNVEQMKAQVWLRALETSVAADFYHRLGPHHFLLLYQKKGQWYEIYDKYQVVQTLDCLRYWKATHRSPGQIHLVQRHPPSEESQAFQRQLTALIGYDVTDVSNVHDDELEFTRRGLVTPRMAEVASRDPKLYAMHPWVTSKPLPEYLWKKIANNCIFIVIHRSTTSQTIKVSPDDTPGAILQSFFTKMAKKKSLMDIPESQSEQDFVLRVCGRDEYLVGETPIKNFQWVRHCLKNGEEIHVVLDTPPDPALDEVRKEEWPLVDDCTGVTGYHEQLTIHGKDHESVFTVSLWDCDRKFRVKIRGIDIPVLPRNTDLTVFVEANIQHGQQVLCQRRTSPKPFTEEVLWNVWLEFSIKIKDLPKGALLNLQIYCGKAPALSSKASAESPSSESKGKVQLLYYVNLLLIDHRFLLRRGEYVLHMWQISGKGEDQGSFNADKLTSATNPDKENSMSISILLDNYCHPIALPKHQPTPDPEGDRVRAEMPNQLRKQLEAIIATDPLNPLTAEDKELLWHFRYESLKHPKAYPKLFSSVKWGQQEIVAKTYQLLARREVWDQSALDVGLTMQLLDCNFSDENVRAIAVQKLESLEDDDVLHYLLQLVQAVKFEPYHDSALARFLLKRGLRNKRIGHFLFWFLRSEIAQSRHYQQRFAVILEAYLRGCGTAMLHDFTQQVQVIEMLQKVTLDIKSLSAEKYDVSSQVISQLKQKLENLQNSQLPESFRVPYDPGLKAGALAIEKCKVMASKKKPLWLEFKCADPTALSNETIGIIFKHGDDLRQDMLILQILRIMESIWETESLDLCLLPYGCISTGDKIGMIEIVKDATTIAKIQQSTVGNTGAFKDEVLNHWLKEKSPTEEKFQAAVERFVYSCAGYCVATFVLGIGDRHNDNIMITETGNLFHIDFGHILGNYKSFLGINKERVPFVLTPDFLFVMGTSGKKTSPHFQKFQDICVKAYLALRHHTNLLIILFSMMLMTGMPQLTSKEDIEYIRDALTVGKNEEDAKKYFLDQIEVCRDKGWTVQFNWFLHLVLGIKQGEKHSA
T1 sequence (Q8WYR1 whole entry partner, species assumed): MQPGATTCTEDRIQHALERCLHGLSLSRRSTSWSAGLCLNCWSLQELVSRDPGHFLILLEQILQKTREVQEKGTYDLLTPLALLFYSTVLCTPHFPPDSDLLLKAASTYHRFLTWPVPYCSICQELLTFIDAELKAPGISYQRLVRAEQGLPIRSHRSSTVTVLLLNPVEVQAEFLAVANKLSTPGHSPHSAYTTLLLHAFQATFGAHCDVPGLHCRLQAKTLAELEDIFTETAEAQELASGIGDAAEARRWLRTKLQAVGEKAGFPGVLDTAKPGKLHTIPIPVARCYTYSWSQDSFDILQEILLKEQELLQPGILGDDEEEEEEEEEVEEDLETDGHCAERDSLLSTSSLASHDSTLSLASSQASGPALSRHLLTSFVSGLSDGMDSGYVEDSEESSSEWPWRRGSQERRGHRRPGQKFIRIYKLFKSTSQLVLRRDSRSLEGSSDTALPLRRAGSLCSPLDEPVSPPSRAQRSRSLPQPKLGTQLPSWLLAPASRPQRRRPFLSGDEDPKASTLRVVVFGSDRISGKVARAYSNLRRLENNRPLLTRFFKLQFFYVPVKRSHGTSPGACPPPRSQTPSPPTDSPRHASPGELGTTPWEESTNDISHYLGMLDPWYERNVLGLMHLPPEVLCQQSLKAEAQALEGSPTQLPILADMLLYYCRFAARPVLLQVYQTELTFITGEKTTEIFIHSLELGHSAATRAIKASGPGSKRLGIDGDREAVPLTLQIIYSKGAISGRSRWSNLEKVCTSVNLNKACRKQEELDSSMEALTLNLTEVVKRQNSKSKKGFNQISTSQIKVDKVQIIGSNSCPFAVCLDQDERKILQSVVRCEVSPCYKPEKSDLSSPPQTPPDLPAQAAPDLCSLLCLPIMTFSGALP

Regarding `Cc1nc(Nc2cc(C(=O)O)n(C)c2)nc2c1ccc(=O)n2C1CCOCC1` [Example 19, 1-Methyl-4-[4-methyl-7-oxo-8-(tetrahydro-pyran-4-yl)-7,8-dihydro-pyrido[2,3-d]pyrimidin-2-ylamino]-1H-pyrrole-2-carboxylic acid], the “% of DMSO control (mean ± S.D.)” value in test [1] was 101 ± 6%. Further, the IC50 in test [2] was found to be 34 nM.
Consider `Cc1nc(Nc2cc(C(=O)O)n(C)c2)nc2c1cc(F)c(=O)n2C1CCCC1` [Example 24, 4-(8-Cyclopentyl-6-fluoro-4-methyl-7-oxo-7,8-dihydro-pyrido[2,3-d]pyrimidin-2-ylamino)-1-methyl-1H-pyrrole-2-carboxylic acid], for which, in test [1], the “% of DMSO control (mean ± S.D.)” value is listed as 85 ± 9%. In addition, the 50% inhibitory concentration (IC50) in test [2] turned out to be 9 nM.
Consider `Cc1nc(Nc2cc(C(=O)O)n(C)c2)nc2c1cc(F)c(=O)n2CC1CCOCC1` [Example 26, 4-[6-Fluoro-4-methyl-7-oxo-8-(tetrahydro-pyran-4-ylmethyl)-7,8-dihydro-pyrido[2,3-d]pyrimidin-2-ylamino]-1-methyl-1H-pyrrole-2-carboxylic acid], for which the IC50 in test [2] worked out at 25 nM.
For `COC1CCC(n2c(=O)c(F)cc3c(C)nc(Nc4cc(C(=O)O)n(C)c4)nc32)CC1` (centres unmarked) [Example 27, 4-[6-Fluoro-8-(4-methoxy-cyclohexyl)-4-methyl-7-oxo-7,8-dihydro-pyrido[2,3-d]pyrimidin-2-ylamino]-1-methyl-1H-pyrrole-2-carboxylic acid], in test [2], the half-inhibitory concentration (IC50) was found to be 19 nM.
Turning to `Cc1nc(Nc2cc(C(=O)O)n(C(C)c3ccccc3)c2)nc2c1cc(F)c(=O)n2C1CCCC1` (centres unmarked) [Example 28, 4-(8-Cyclopentyl-6-fluoro-4-methyl-7-oxo-7,8-dihydro-pyrido[2,3-d]pyrimidin-2-ylamino)-1-(1-phenyl-ethyl)-1H-pyrrole-2-carboxylic acid], the half-maximal inhibitory concentration (IC50) in test [2] stood at 15 nM.
Consider `COC(=O)c1cc(Nc2nc(C)c3cc(Cl)c(=O)n(C4CCCC4)c3n2)cn1C` [Example 29, 4-(6-Chloro-8-cyclopentyl-4-methyl-7-oxo-7,8-dihydro-pyrido[2,3-d]pyrimidin-2-ylamino)-1-methyl-1H-pyrrole-2-carboxylic acid methyl ester], for which the concentration for half-maximal inhibition (IC50) in test [2] turned out to be 6 nM.
Regarding `CCn1c(=O)c(Cl)cc2c(C)nc(Nc3cc(C(=O)OC)n(C)c3)nc21` [Example 30, 4-(6-Chloro-8-ethyl-4-methyl-7-oxo-7,8-dihydro-pyrido[2,3-d]pyrimidin-2-ylamino)-1-methyl-1H-pyrrole-2-carboxylic acid methyl ester], the IC50 in test [2] was 2 nM.
For the compound `CCn1c(=O)c(Cl)cc2c(C)nc(Nc3cc(C(=O)O)n(C)c3)nc21` [Example 31, 4-(6-Chloro-8-ethyl-4-methyl-7-oxo-7,8-dihydro-pyrido[2,3-d]pyrimidin-2-ylamino)-1-methyl-1H-pyrrole-2-carboxylic acid], the “% of DMSO control (mean ± S.D.)” value in test [1] is listed as 104 ± 1%. For the same compound, the IC50 in test [2] was determined as 5 nM.
Regarding `COCCn1c(=O)c(Br)cc2c(C)nc(Nc3cc(C(=O)O)n(C)c3)nc21` [Example 32, 4-[6-Bromo-8-(2-methoxy-ethyl)-4-methyl-7-oxo-7,8-dihydro-pyrido[2,3-d]pyrimidin-2-ylamino]-1-methyl-1H-pyrrole-2-carboxylic acid], the IC50 in test [2] turned out to be 5 nM.
Turning to `COc1ccc(Cn2c(=O)c(Br)cc3c(C)nc(Nc4cc(C(=O)O)n(C)c4)nc32)cc1` [Example 33, 4-[6-Bromo-8-(4-methoxy-benzyl)-4-methyl-7-oxo-7,8-dihydro-pyrido[2,3-d]pyrimidin-2-ylamino]-1-methyl-1H-pyrrole-2-carboxylic acid], in test [2], the concentration for half-maximal inhibition (IC50) came out at 17 nM.
In the case of `COCCn1c(=O)c(-c2cccc(OCc3ccccc3)c2)cc2c(C)nc(Nc3cc(C(=O)OC)n(C)c3)nc21` [Example 34, 4-[6-(3-Benzyloxy-phenyl)-8-(2-methoxy-ethyl)-4-methyl-7-oxo-7,8-dihydro-pyrido[2,3-d]pyrimidin-2-ylamino]-1-methyl-1H-pyrrole-2-carboxylic acid methyl ester], the IC50 in test [2] stood at 305 nM.
Take `Cc1nc(Nc2cc(C(=O)O)n(C)c2)nc2c1cc(-c1cccc(OCc3ccccc3)c1)c(=O)n2Cc1ccc(F)cc1` [Example 35, 4-[6-(3-Benzyloxy-phenyl)-8-(4-fluoro-benzyl)-4-methyl-7-oxo-7,8-dihydro-pyrido[2,3-d]pyrimidin-2-ylamino]-1-methyl-1H-pyrrole-2-carboxylic acid]: the IC50 in test [2] is 340 nM.
In the case of `COc1ccc(Cn2c(=O)c(C)cc3c(C)nc(Nc4cc(C(=O)O)n(C)c4)nc32)cc1` [Example 36, 4-[8-(4-Methoxy-benzyl)-4,6-dimethyl-7-oxo-7,8-dihydro-pyrido[2,3-d]pyrimidin-2-ylamino]-1-methyl-1H-pyrrole-2-carboxylic acid], the IC50 in test [2] is 47 nM.
Turning to `Cc1nc(Nc2cc(C(=O)O)n(C)c2)nc2c1ccc(=O)n2C1CCCCC1` [Example 38, 4-[8-Cyclohexyl-4-methyl-7-oxo-7,8-dihydro-pyrido[2,3-d]pyrimidin-2-ylamino]-1-methyl-1H-pyrrole-2-carboxylic acid], in test [2], the concentration for half-maximal inhibition (IC50) stood at 21 nM.
